Data on three compounds can be found in ChEMBL document CHEMBL5344480 (RSC Med Chem, 2024).

The target of assay [1] is T1, 5-hydroxytryptamine receptor 2A (Homo sapiens, UniProt P28223). As to the kind of experiment: Inhibition of 5-HT2AR (unknown origin ) assessed as inhibition constant.
Assay [2] concerns the target T1, 5-hydroxytryptamine receptor 2A. As to the kind of experiment: Inhibition of [125I](+/-)DOI binding to 5-HT2AR (unknown origin ) expressed in HEK293 cells at 10 uM by scintillation counter analysis. Type of assay: cell-based.
For assay [3], the target named is 5-hydroxytryptamine receptor 2B (Homo sapiens, UniProt P41595). As to the kind of experiment: Inhibition of [125I](+/-)DOI binding to 5-HT2BR (unknown origin ) expressed in CHO cells assessed as inhibition constant by scintillation counter analysis. In kind it is cell-based.
Sequence of 5-hydroxytryptamine receptor 2B (P41595 whole entry): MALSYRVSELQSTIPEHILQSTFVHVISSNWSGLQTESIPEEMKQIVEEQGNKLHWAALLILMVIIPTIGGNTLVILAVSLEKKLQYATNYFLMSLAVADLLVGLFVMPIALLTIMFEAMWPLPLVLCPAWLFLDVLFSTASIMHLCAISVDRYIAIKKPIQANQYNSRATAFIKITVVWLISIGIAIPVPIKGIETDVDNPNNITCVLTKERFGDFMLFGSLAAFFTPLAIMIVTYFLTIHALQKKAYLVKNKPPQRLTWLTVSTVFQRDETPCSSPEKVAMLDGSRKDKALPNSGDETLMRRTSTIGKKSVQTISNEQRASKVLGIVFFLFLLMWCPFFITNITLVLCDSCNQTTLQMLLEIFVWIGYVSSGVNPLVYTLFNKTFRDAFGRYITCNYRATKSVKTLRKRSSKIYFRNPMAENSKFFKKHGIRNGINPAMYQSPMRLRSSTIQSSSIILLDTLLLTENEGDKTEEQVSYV
Assay [4] addresses T1, 5-hydroxytryptamine receptor 2A. As to the kind of experiment: Inhibition of [125I](+/-)DOI binding to 5-HT2AR (unknown origin ) expressed in HEK293 cells assessed as inhibition constant by scintillation counter analysis. Type of assay: cell-based.

Calls of active or inactive are those of the source. No cut-off for these calls is given here.

T1 sequence (P28223 whole entry): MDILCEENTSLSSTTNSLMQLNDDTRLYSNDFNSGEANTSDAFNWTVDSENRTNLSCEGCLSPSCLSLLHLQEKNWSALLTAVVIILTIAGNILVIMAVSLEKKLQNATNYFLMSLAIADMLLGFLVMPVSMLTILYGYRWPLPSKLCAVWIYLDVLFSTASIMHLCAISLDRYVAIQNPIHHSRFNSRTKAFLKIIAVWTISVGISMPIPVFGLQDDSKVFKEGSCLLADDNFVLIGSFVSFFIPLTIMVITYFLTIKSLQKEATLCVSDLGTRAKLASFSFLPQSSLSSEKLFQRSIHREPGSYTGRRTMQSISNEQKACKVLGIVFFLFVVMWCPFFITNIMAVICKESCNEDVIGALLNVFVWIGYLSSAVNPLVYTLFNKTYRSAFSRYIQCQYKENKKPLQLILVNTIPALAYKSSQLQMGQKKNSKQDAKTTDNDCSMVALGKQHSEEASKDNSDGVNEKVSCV

The Ki is a measure of affinity in units of concentration, obtained from inhibition or displacement. As for `CN(C)CCc1c[nH]c2cccc(OP(=O)(O)O)c12` [PSILOCYBIN], the Ki in assay [1] is over 10000 nM.
In the case of `CCOP(=O)(OCC)c1cccc2[nH]cc(CCN(C)C)c12`, the inhibition entry in assay [2] was “Active”.
As for `CCOP(=O)(OCC)c1ccc2[nH]cc(CCN(C)C)c2c1`, the figures for the Ki in assay [3] and in assay [4] were 140 nM and 620 nM, respectively. The inhibition entry in assay [2] is “Active”.
